Data published in EP0199985A2, “Benzoic-acid derivatives, pharmaceutical preparations comprising them and process for preparing these compounds and pharmaceutical preparations” (Grünenthal GmbH, priority 1985, dated 1986).

biological target: T1, 5-Lipoxygenase (Rattus norvegicus, UniProt P12527); test: 5-lipoxygenase inhibition in cultured rat basophilic leukemic leukocytes (radiolabelled arachidonic acid, TLC of 5-HETE and LTB4); type: cell-based, Ratte; conditions: rat basophilic leukemic leukocytes in 50 mM potassium phosphate buffer pH 7.4; indomethacin 10 µM, CaCl2 2 mM, labelled arachidonic acid + ionophore A 23 187, 5 min, room temperature; formation of 5-HETE and LTB4
T1 construct: basophile leukämische Leukozyten der Ratte in-vitro gezüchtet; endogenous in cells; whole cells suspended in phosphate buffer, stimulated with A 23187
T1 sequence (P12527 1-673): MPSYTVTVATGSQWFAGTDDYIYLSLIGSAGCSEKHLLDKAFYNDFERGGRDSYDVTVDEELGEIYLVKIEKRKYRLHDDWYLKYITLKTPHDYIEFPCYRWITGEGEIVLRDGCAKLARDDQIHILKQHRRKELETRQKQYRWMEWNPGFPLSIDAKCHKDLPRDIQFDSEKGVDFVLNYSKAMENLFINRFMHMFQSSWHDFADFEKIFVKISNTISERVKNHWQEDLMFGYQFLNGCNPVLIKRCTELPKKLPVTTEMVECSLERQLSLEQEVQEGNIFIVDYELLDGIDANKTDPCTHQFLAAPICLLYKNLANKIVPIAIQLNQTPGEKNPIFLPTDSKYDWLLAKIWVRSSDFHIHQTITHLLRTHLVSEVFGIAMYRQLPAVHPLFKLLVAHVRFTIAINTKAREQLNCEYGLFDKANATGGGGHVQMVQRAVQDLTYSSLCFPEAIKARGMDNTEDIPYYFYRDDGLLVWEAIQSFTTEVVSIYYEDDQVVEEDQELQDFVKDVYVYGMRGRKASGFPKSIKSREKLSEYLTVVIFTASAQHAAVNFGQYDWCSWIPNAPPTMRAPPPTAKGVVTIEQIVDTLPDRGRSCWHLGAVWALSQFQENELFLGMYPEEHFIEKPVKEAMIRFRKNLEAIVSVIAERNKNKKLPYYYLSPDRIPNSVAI
Protocol: Zur Ermittlung der 5-Lipoxygenasehemmung wurden basophile leukämische Leukozyten der Ratte in-vitro gezüchtet und nach Erreichen einer Zelldichte von ca. 10^6 Zellen pro ml bei 400 g vom Nährmedium abzentrifugiert. Der Rückstand wurde in 50 mM Kaliumphosphatpuffer vom pH 7,4 so suspendiert, daß die Zellzahl […] Zellen pro ml betrug.
Jeweils 1 ml dieser Suspension wurde mit Indomethacin (10 uM) und Calciumchlorid (2 mM) versetzt und in An-oder Abwesenheit einer der Testsubstanzen mit radioaktiv markierter Arachi- 5 donsäure und dem Calcium-lonophor A 23 187 bei Raumtemperatur für 5 Minuten inkubiert. Nach Ansäuern auf pH 5 wurden die unter dem Einfluß der 5-Lipoxygenase gebildeten Arachidonsäuremetaboliten mit Ethylacetat extrahiert und 10 mit einem für die Leukotriene geeigneten Fließmittelgemisch dünnschichtchromatographisch getrennt [vgl. Jakschik et al. Biochem. Biophys. Res. Commun. 102, 624 (1981)]. Die Radioaktivitätsverteilung auf die verschiedenen Metaboliten 15 wurde mit Hilfe eines Dünnschichtscanners gemessen. Setzt man die prozentualen Bildungsanteile der 5-Lipoxygenaseprodukte (5-HETE und LTB4) zu der Menge bzw. Konzentration der eingesetzten Gesamtradioaktivität bzw. der Testsubstanz 20 der Formel I in Relation, so läßt sich der IC50-Wert-(d. h. die Konzentration, die eine 50 %-ige Hemmung der 5-Lipoxygenase bewirkt) ermitteln.

Structure (SMILES) | IC50 [µM]
CC(=O)ON(C)C(=O)c1cccc(C#CCCCCCCC#CCO)c1 [Beispiel 24l, 3-(11'-Hydroxy-undeca-1',9'-diin-1'-yl)-benzoesäure-(N-methyl-N-acetoxy)-amid] | 0.5
CN(O)C(=O)c1cccc(C#CCCCCCCC#CC(O)C2CCCCC2)c1 (stereo not drawn) [Beispiel 23biii, 3-(11'-Cyclohexyl-11'-hydroxy-undeca-1',9'-diin-1'-yl)-N-methylbenzhydroxamsäure] | 0.5
CC(C)N(C(=O)c1cccc(C#CCCCCCCC#CCO)c1)C(C)C [Beispiel 24n, 3-(11'-Hydroxy-undeca-1',9'-diin-1'-yl)-benzoesäure-[N,N-di-(isopropyl)]-amid] | 1.6
CN(O)C(=O)c1cccc(C#CCCCCCCC#CCO)c1 [Beispiel 16] | 1
CCCCCNC(=O)c1cccc(C#CCCCCCCC#CCOC(C)=O)c1 [Beispiel 27a, 3-(11 '-Acetoxy-undeca-1',9'-diin-1'-yl)-benzoesäure-n-pentylamid] | 7
O=C(c1cccc(C#CCCCCCCC#CCO)c1)N1CCCCC1 [Beispiel 17, 3-(11 '-Hydroxy-undeca-1',9'-diin-1'-yl)-benzoesäurepiperidid] | 2.3

More lines, in order of falling IC50, values ahead:

IC50 [µM] | Structure (SMILES)
7.5 | CCOC(=O)c1cccc(C#CCCCCCCC#CCO)c1 [Beispiel 18, 3-(11 '-Hydroxy-undeca-1',9'-diin-1-yl)-benzoesäureethylester]
2.4 | CCCN(CCC)C(=O)c1cccc(C#CCCCCCCC#CCO)c1 [Beispiel 24g, 3-(11'-Hydroxy-undeca-1',9'-diin-1'-yl)-benzoesäure-[N,N-di-(n-propyl)]-amid]
1.7 | CCCCCC(O)/C=C/C#CCC#CCC#Cc1cccc(C(=O)OC)c1 (stereo not drawn) [Beispiel 1, 3-(11'-Hydroxy-hexadec-9'E-en-1',4',7'-triin-1'-yl)-benzoesäuremethylester]
1.4 | COC(=O)c1cccc(C#CCC#CCC#C/C=C/C(O)C2CCCCC2)c1 (stereo not drawn) [Beispiel 4, 3-(11'-Cyclohexyl-11'-hydroxy-undec-9'E-en-1',4',7-triin-1'-yl)-benzoesäuremethylester]
1 | CCCCCC(O)/C=C/C=C\C/C=C\C/C=C\c1ccc(C(=O)OC)cc1 (stereo not drawn) [Beispiel 7, 4-(11'-Hydroxy-hexadeca-1'Z,4'Z,7'Z,9'E-tetraen-1'-yl)-benzoesäuremethylester]
0.2 | CN(O)C(=O)c1ccc(C#CCCCCCCC#CCO)cc1 [Beispiel 11, 4-(11'-Hydroxy-undeca-1',9'-diin-1'-yl)-N-methylbenzhydroxamsäure]
